Source: patent publication US20130165459A1, “PHARMACEUTICAL COMPOSITION AND DOSAGE FORMS OF ELINOGREL AND METHODS OF USE THEREOF” (NORVARTIS PHARMA AG, priority 2010, published 2013)
Values joined by “and” are separate entries in the source; they are usually repeats but may differ in a detail not shown here. Equal values may be shown once.

Experiment: contact angle measurement (wettability)
Assay type: physicochemical
Conditions: for Contact Angle: water, n = 2; for surface hydrophobicity: critical angle around 50°
Procedure: The contact angle instrument was EasyDrop DSA15E (Krüss, Hamburg, Germany). The syringe was a NE44, with a needle diameter of 0.5 mm (Krüss, Hamburg, Germany). The standards (Krüss, Hamburg, Germany) were CP24 20007107, contact angle Gauge#4=30.00°±0.3, Gauge#5=60.00°±0.3, Gauge#6=120.00°±0.3.
The powder was pressed (approx 50 mg powder, 3 tons, 2 min) in tablets and analyzed by contact angle measuremnt. The angle between the solid and the liquid is measured after 0 and up to 60 seconds using water.
All determinations used the above method, and the limit for the standards measurements are well within the given limits.

Contact Angle (0 sec) | Contact Angle (30 sec) | Contact Angle (60 sec) | surface hydrophobicity | Structure (SMILES)
65.9 ° | 60.8 ° | 60.1 ° | – | CNc1cc2[nH]c(=O)n(-c3ccc(NC(=O)NS(=O)(=O)c4ccc(Cl)s4)cc3)c(=O)c2cc1F [Free acid, [4-(6-fluoro-7-methylamino-2,4-dioxo-1,4-dihydro-2H-quinazolin-3-yl)-phenyl]-5-chloro-thiophen-2-yl-sulfonylurea]
78.8 ° | 53.3 ° | 51.0 ° | hydrophobic | CNc1cc2[nH]c(=O)n(-c3ccc(NC(=O)[N-]S(=O)(=O)c4ccc(Cl)s4)cc3)c(=O)c2cc1F.[K+] [A]
72.4 ° and 79.7 ° | 54.6 ° and 55.2 ° | 53.5 ° and 52.8 ° | hydrophobic | CNc1cc2[nH]c(=O)n(-c3ccc(NC(=O)[N-]S(=O)(=O)c4ccc(Cl)s4)cc3)c(=O)c2cc1F.[K+] [B]
